Series [1] is filed under the species Rattus norvegicus. The experiment in a line: Activation of AMPK in Sprague-Dawley rat primary hepatocytes assessed as inhibition of gluconeogenesis by measuring glucose production at 10 uM after 6 hrs by colorimetric assay (reference value: 100 +/- 3.5%). Set-up: scale not given: the % may be the effect or the level left.
Series [2] deals with L6. The experiment in a line: Activation of AMPK in Sprague-Dawley rat L6 myotube cells assessed as increase in acetyl-CoA carboxylase phosphorylation at Ser79 residues at 5 to 20 uM after 1 hr by Western blot analysis. The format is cell-based. Background: A western blot detects proteins with antibodies after separation by electrophoresis.
Series [3] relates to L6. The experiment in a line: Inhibition of mitochondrial respiratory complex 1 in differentiated Sprague-Dawley rat L6 myotube cells assessed as mitochondrial membrane potential at 20 uM after 40 to 60 mins by JC-1 staining based fluorescence assay (reference value: 100 +/- 1.6%). The series is classed as cell-based. Set-up: scale not given: the % may be the effect or the level left.

The test system of series [4] is L6. The series is described as follows: Upregulation of AMPKalpha phosphorylation at Thr172 residues in Sprague-Dawley rat L6 myotube cells at 5 to 20 uM after 1 hr by Western blot analysis. The format is cell-based.
A short description of series [5]: Cytotoxicity against Sprague-Dawley rat L6 cells assessed as cell viability at 20 uM after 12 hrs by SRB assay (reference value: 100 +/- 1.8%). The series is classed as cell-based. The following applies: read-out: Activity. Background: In SRB staining, fixed cells bind dye roughly in proportion to their protein.
Series [6] can be described thus: Cytotoxicity against Sprague-Dawley rat L6 cells assessed as cell viability at 5 uM after 12 hrs by SRB assay (reference value: 100 +/- 1.8%). Particulars: read-out: Activity. The series is classed as cell-based.
The species entered for series [7] is Rattus norvegicus. The series is described as follows: Activation of AMPK in Sprague-Dawley rat primary hepatocytes assessed as inhibition of gluconeogenesis by measuring glucose production at 5 uM after 6 hrs by colorimetric assay (reference value: 100 +/- 3.5%). Set-up: scale not given: the % may be the effect or the level left.
In series [8] the test system is L6. The series is described as follows: Activation of AMPK in differentiated Sprague-Dawley rat L6 myotube cells assessed as increase in glucose consumption at 5 to 20 uM after 12 hrs by colorimetric assay relative to control. The series is classed as cell-based.
For series [9], the system named is L6. The experiment in a line: Activation of AMPK in differentiated Sprague-Dawley rat L6 myotube cells assessed as glucose consumption at 10 uM after 12 hrs by colorimetric assay (reference value: 100 +/- 1.8%). The format is cell-based.
Series [10] can be described thus: Cytotoxicity against Sprague-Dawley rat L6 cells assessed as cell viability at 10 uM after 12 hrs by SRB assay (reference value: 100 +/- 1.8%). The format is cell-based. The following applies: read-out: Activity.
For series [11], the system named is L6. The series is described as follows: Activation of AMPK in differentiated Sprague-Dawley rat L6 myotube cells assessed as glucose consumption at 20 uM after 12 hrs by colorimetric assay (reference value: 100 +/- 1.8%). The series is classed as cell-based.
Series [12] has as its system L6. The experiment in a line: Activation of AMPK in differentiated Sprague-Dawley rat L6 myotube cells assessed as increase in glucose consumption at 5 to 20 uM after 12 hrs by colorimetric assay relative to berberine. The series is classed as cell-based.
For series [13], the species on record is Rattus norvegicus. The series is described as follows: Activation of AMPK in Sprague-Dawley rat primary hepatocytes assessed as inhibition of gluconeogenesis by measuring glucose production at 20 uM after 6 hrs by colorimetric assay (reference value: 100 +/- 3.5%). Also on record: scale not given: the % may be the effect or the level left.
For series [14], the species on record is Rattus norvegicus. The series is described as follows: Activation of AMPK in Sprague-Dawley rat primary hepatocytes assessed as inhibition of gluconeogenesis by measuring glucose production after 6 hrs by colorimetric assay.
For series [15], the system named is L6. The series is described as follows: Inhibition of mitochondrial respiratory complex 1 in differentiated Sprague-Dawley rat L6 myotube cells assessed as mitochondrial membrane potential at 5 uM after 40 to 60 mins by JC-1 staining based fluorescence assay (reference value: 100 +/- 1.6%). The format is cell-based. Also on record: scale not given: the % may be the effect or the level left.

Series [16] concerns L6. The experiment in a line: Inhibition of mitochondrial respiratory complex 1 in differentiated Sprague-Dawley rat L6 myotube cells assessed as mitochondrial membrane potential at 10 uM after 40 to 60 mins by JC-1 staining based fluorescence assay (reference value: 100 +/- 1.6%). The format is cell-based. Set-up: scale not given: the % may be the effect or the level left.

Series [17] concerns L6. The series is described as follows: Activation of AMPK in differentiated Sprague-Dawley rat L6 myotube cells assessed as glucose consumption at 5 uM after 12 hrs by colorimetric assay (reference value: 100 +/- 1.8%). The series is classed as cell-based.
The test system of series [18] is L6. The series is described as follows: Activation of AMPK in differentiated Sprague-Dawley rat L6 myotube cells assessed as increase in glucose consumption at 10 uM after 12 hrs by colorimetric assay relative to control. The format is cell-based.
Series [19] has as its system L6. The experiment in a line: Activation of AMPK in Sprague-Dawley rat L6 myotube cells assessed as increase in acetyl-CoA carboxylase phosphorylation at Ser79 residues at 10 uM after 1 hr by Western blot analysis. The format is cell-based.
In series [20] the test system is L6. The series is described as follows: Upregulation of AMPKalpha phosphorylation at Thr172 residues in Sprague-Dawley rat L6 myotube cells at 10 uM after 1 hr by Western blot analysis. The format is cell-based.

The source made the active and inactive calls. The calls are words filed in the database; no cut-off is given here.

As for `C=CCOc1ccc(Cc2cc3c(s2)CCN2Cc4c(OC)ccc(OC)c4CC32)cc1` (configuration not stated), the Activity was 49.6% in the series filed under Rattus norvegicus [1]; 54% with L6 [3]; 58.7% in the series filed under Rattus norvegicus [7]; 249% with L6 [9]; 265% in the series with L6 [11]; 49% in the series filed under Rattus norvegicus [13]. Besides, the Activity is 83.7% in the series on L6 [15], 72.8% in the series with L6 [16] and 213% with L6 [17]. Further, the result in the series on L6 [2] and in the series on L6 [4] was Active. Moreover, the viability at 12 h, 20 µM in series [5] was found to be 98.7%. For the same compound, in series [6], the viability at 12 h, 5 µM is 99.4%. Further, the figures for the fold change (FC) with L6 [8] and with L6 [12] were 2.1 to 2.7 and 2.3, respectively. For the same compound, the viability at 12 h, 10 µM in series [10] came to 102%. The inhibition result in the series listed under Rattus norvegicus [14] is “Dose-dependent effect”.

Take `COc1ccc(OC)c2c1CC1c3cc(Cc4ccc(F)cc4)sc3CCN1C2` (configuration not stated): the Activity worked out at 83.4% in the series filed under Rattus norvegicus [1]; 62.9% in the series with L6 [3]; 96.7% in the series listed under Rattus norvegicus [7]; 238% in the series with L6 [9]; 235% in the series with L6 [11]; 60.6% in the series filed under Rattus norvegicus [13]. Moreover, the Activity in the series on L6 [15] was determined as 82.8%; in the series with L6 [16] it was 76%; in the series with L6 [17], 216%. Also, the outcome in the series with L6 [2] and with L6 [4] was Active. For the same compound, in [5], the viability at 12 h, 20 µM came out at 100%. In addition, the viability at 12 h, 5 µM in series [6] amounted to 98.8%. The figures for the fold change (FC) in the series with L6 [8] and with L6 [12] were 2.3 to 2.9 and 2.3, respectively. The viability at 12 h, 10 µM in [10] came to 98.2%. For the same compound, the inhibition result in the series listed under Rattus norvegicus [14] was “Dose-dependent effect”.

On to `CCCCc1cc2c(s1)CC1c3cc4c(cc3CCN1C2)OCO4` (configuration not stated), for which the Activity was 55.6% in the series filed under Rattus norvegicus [1]; 57.5% with L6 [3]; 58.3% in the series filed under Rattus norvegicus [7]; 287% in the series with L6 [9]; 285% in the series on L6 [11]; 53.7% in the series filed under Rattus norvegicus [13]. Besides, the figures for the Activity in the series with L6 [15], with L6 [16] and with L6 [17] were 75.1%, 68.9% and 265%, respectively. Moreover, the outcome with L6 [2] and in the series with L6 [4] was Active. Also, the viability at 12 h, 20 µM in series [5] was 97.7%. Also, the viability at 12 h, 5 µM in series [6] stood at 102%. Further, in series [10], the viability at 12 h, 10 µM was found to be 98.8%. The inhibition result in the series filed under Rattus norvegicus [14] is “Dose-dependent effect”. In the series on L6 [18], the fold change (FC) is 2.9.

As to `CCc1cc2c(s1)CC1c3cc4c(cc3CCN1C2)OCO4` (configuration not stated), the viability at 12 h, 20 µM in series [5] was determined as 102%. Moreover, in series [6], the viability at 12 h, 5 µM came out at 99.5%. In addition, the figures for the Activity in the series with L6 [9], with L6 [11] and in the series with L6 [17] were 219%, 227% and 212%, respectively. Further, the viability at 12 h, 10 µM in series [10] was determined as 102%. Further, in the series on L6 [18], the fold change (FC) was determined as 2.2.

As to `c1ccc(Cc2cc3c(s2)CC2c4cc5c(cc4CCN2C3)OCO5)cc1` (configuration not stated), the Activity in the series listed under Rattus norvegicus [1] was 48.2%; with L6 [3], 79.7%; in the series filed under Rattus norvegicus [7], 59.5%; with L6 [9], 242%; in the series with L6 [11], 264%; in the series listed under Rattus norvegicus [13], 40.9%. Also, the Activity in the series with L6 [15] was found to be 98.2%; in the series on L6 [16], 90.7%; in the series with L6 [17], 194%. The result in the series on L6 [2] and in the series with L6 [4] was Active. Moreover, the viability at 12 h, 20 µM in [5] was determined as 101%. Besides, the viability at 12 h, 5 µM in series [6] was determined as 102%. The viability at 12 h, 10 µM in series [10] came out at 101%. Besides, the inhibition entry in the series filed under Rattus norvegicus [14] is “Dose-dependent effect”. For the same compound, the fold change (FC) in the series with L6 [18] came out at 2.4.

`COc1ccc(OC)c2c1CC1c3cc(C(C)c4ccccc4)sc3CCN1C2` (configuration not stated): the Activity was 39.5% in the series listed under Rattus norvegicus [1]; 66% in the series with L6 [3]; 43.4% in the series filed under Rattus norvegicus [7]; 264% with L6 [9]; 246% in the series with L6 [11]; 36% in the series listed under Rattus norvegicus [13]. In addition, the Activity with L6 [15] amounted to 86.6%; in the series with L6 [16], 76.6%; in the series on L6 [17] it was 244%. In addition, the outcome in the series with L6 [2] and with L6 [4] was Active. Further, in series [5], the viability at 12 h, 20 µM turned out to be 101%. In addition, the viability at 12 h, 5 µM in [6] was found to be 101%. In addition, the fold change (FC) in the series on L6 [8] was 2.3 to 2.9; in the series on L6 [12] it was 2.3. Besides, the viability at 12 h, 10 µM in series [10] stood at 102%. The inhibition result in the series filed under Rattus norvegicus [14] is “Dose-dependent effect”.

On to `COc1ccc2cc3[n+](cc2c1OC)CCc1cc2c(cc1-3)OCO2` [BERBERINE CHLORIDE], for which the outcome in the series on L6 [19] and in the series on L6 [20] was Active. The Activity was 84.5% in the series with L6 [3]; 57.6% in the series filed under Rattus norvegicus [7]; 228% in the series with L6 [9]; 91.5% with L6 [15]; 85.8% in the series on L6 [16]. Besides, the viability at 12 h, 10 µM in series [10] was 100%.

For `COc1ccc(OC)c2c1CC1c3cc(Cc4ccc(C)cc4)sc3CCN1C2` (configuration not stated), the Activity in the series filed under Rattus norvegicus [1] worked out at 65%; in the series on L6 [3] it was 49%; in the series listed under Rattus norvegicus [7], 73.3%; with L6 [9], 230%; in the series on L6 [11], 238%; in the series listed under Rattus norvegicus [13] it was 55.7%. In addition, the Activity was 67.7% in the series on L6 [15], 57.7% with L6 [16] and 222% with L6 [17]. Moreover, the outcome in the series with L6 [2] and with L6 [4] was Active. Also, in series [5], the viability at 12 h, 20 µM was 107%. Also, in [6], the viability at 12 h, 5 µM is 100%. Moreover, the fold change (FC) in the series with L6 [8] was 2.3 to 2.9; in the series on L6 [12], 2.3. For the same compound, the viability at 12 h, 10 µM in series [10] was determined as 106%. The inhibition result in the series listed under Rattus norvegicus [14] was “Dose-dependent effect”.

With `c1cc2c(s1)CC1c3cc4c(cc3CCN1C2)OCO4` (configuration not stated), the viability at 12 h, 20 µM in [5] came out at 102%. For the same compound, the viability at 12 h, 5 µM in [6] turned out to be 98.6%. Besides, the Activity with L6 [9] is 134%; in the series with L6 [11], 133%; in the series with L6 [17], 132%. In addition, the viability at 12 h, 10 µM in series [10] amounted to 99.7%. Moreover, in the series with L6 [18], the fold change (FC) was 1.3.

The record behind these values is ChEMBL document CHEMBL4219147, “Design, synthesis, and structure-activity relationships of novel 4,7,12,12a-tetrahydro-5H-thieno[3',2':3,4]pyrido[1,2-b]isoquinoline and 5,8,12,12a-tetrahydro-6H-thieno[2',3':4,5]pyrido[2,1-a]isoquinoline derivatives as cellular activators of adenosine 5'-monophosphate-activated protein kinase …” (Bioorg Med Chem, 2018).
